Data as given in patent US20080109040A1, “METHOD OF TREATING ARRHYTHMIAS” (priority 2002, published 2008).

What was measured:
[1] = Solubility of ranolazine in aqueous solutions as a function of pH; format: physicochemical
Method: In the following examples solutions of ranolazine in water or solutions with a pH above 6 are made up of ranolazine dihydrochloride. In the discussion portions of the following examples, concentrations of ranolazine found as a result of experiments are calculated as ranolazine free base.

[2] = test system: arterially perfused canine left ventricular wedge preparation; experiment: Action potential and ECG studies in arterially-perfused canine left ventricular wedge preparations; parameters: APD90 ± SE, M region / TDR / APD50 ± SE, M region / QTend: unit not given beside the values; conditions: for APD50 ± SE, Epicardium / APD50 ± SE, M region / APD90 ± SE, Epicardium / APD90 ± SE, M region / QTend / TDR / Tpeak-Tend: BCL = 2000; for Ranolazine-induced Torsade de Pointes, Spontaneous / Ranolazine-induced Torsade de Pointes, Stimulation-induced: ranolazine 1-100 μM
Method: Transmural left ventricular wedges with dimensions of approximately 12 mm×35 mm×12 mm were dissected from the mid-to-basal anterior region of the left ventricular wall and a diagonal branch of the left anterior descending coronary artery was cannulated to deliver the perfusate (Tyrode's solution). The composition of the Tyrode's solution was (in mM): […] A separate set of experiments were performed using Tyrode's solution containing 2 mM KCl. Transmembrane action potentials were recorded from epicardial (EPI) and Subendocardial regions (M) using floating microelectrodes. A transmural pseudo-electrocardiogram (ECG) was recorded using two K-Agar electrodes (1.1 mm, i.d.) placed at approx. 1 cm. from the epicardial (+) and endocardial (−) surfaces of the preparation and along the same axis as the transmembrane recordings. […] A constant flow rate was set before ischemia to reach a perfusion pressure of 40-50 mmHg. The temperature was maintained at 37±0.5° C. by heating the perfusate and a contiguous water-chamber that surrounded the tissue-chamber with the same heater/circulating bath. The top-uncovered part of the tissue-chamber was covered in each experiment to 75% of its surface with plastic sheets to further prevent heat loss; the remainder 25% was kept uncovered to position and maneuver the ECG electrodes and the floating microelectrodes. The preparations were fully immersed in the extracellular solution throughout the course of the experiment. The QT interval was defined as the time interval between the initial deflection of the QRS complex and the point at which a tangent drawn to the steepest portion of the terminal part of the T wave crossed the isoelectric line. Experimental Series 1: […] [K^+]o=4 mM. a. Steady-state stimulation: […] b. Programmed electrical stimulation (PES): Premature stimulation was applied to the epicardial surface before and after each concentration of drug in an attempt to induce arrhythmias. Single pulses (S2) were delivered once after every fifth or tenth basic beat (S1) at cycle lengths of 2000 msec. […] Experimental Series 2: […] [K^+]o=2 mM.

SMILES: COc1ccccc1OCC(O)CN1CCN(CC(=O)Nc2c(C)cccc2C)CC1 (racemic) [ranolazine, N-(2,6-dimethylphenyl)-4-[2-hydroxy-3-(2-methoxyphenoxy)propyl]-1-piperazineacetamide]
- USP Solubility Class ([1]; solution pH 4.81): Freely Soluble
- USP Solubility Class ([1]; solution pH 4.89): Soluble
- USP Solubility Class ([1]; solution pH 4.90): Soluble
- USP Solubility Class ([1]; solution pH 5.04): Soluble
- USP Solubility Class ([1]; solution pH 5.35): Sparingly Soluble
- USP Solubility Class ([1]; solution pH 5.82): Slightly soluble
- USP Solubility Class ([1]; solution pH 6.46): Slightly soluble
- USP Solubility Class ([1]; solution pH 6.73): Very slightly soluble
- USP Solubility Class ([1]; solution pH 7.08): Very slightly soluble
- USP Solubility Class ([1]; solution pH 7.59 (unbuffered water)): Very slightly soluble
- USP Solubility Class ([1]; solution pH 7.79): Very slightly soluble
- USP Solubility Class ([1]; solution pH 12.66): Very slightly soluble
- APD50 ± SE, Epicardium ([2]; 1 μM, 2 mM [KCl]0): 173 ± 2
- APD50 ± SE, M region ([2]; 1 μM, 2 mM [KCl]0): 210.7 ± 13.53
- APD90 ± SE, Epicardium ([2]; 1 μM, 2 mM [KCl]0): 232 ± 5.508
- APD90 ± SE, M region ([2]; 1 μM, 2 mM [KCl]0): 280.3 ± 12.72
- QTend ([2]; 1 μM, 2 mM [KCl]0): 311 ± 9.5
- TDR ([2]; 1 μM, 2 mM [KCl]0): 28.33 ± 11.46
- Tpeak-Tend ([2]; 1 μM, 2 mM [KCl]0): 35 ± 4.70
- APD50 ± SE, Epicardium ([2]; 1 μM, 4 mM [KCl]0): 176.3 ± 12.25
- APD50 ± SE, M region ([2]; 1 μM, 4 mM [KCl]0): 203.3 ± 9.621
- APD90 ± SE, Epicardium ([2]; 1 μM, 4 mM [KCl]0): 213.8 ± 13.28
- APD90 ± SE, M region ([2]; 1 μM, 4 mM [KCl]0): 254.3 ± 9.15
- QTend ([2]; 1 μM, 4 mM [KCl]0): 263.5 ± 10.56
- TDR ([2]; 1 μM, 4 mM [KCl]0): 26.75 ± 8.045
- Tpeak-Tend ([2]; 1 μM, 4 mM [KCl]0): 34.5 ± 3.202
- APD50 ± SE, Epicardium ([2]; 5 μM, 2 mM [KCl]0): 183.5 ± 1.5
- APD50 ± SE, M region ([2]; 5 μM, 2 mM [KCl]0): 205.7 ± 7.881
- APD90 ± SE, Epicardium ([2]; 5 μM, 2 mM [KCl]0): 252.5 ± 10.5
- APD90 ± SE, M region ([2]; 5 μM, 2 mM [KCl]0): 289.7 ± 2.848
- QTend ([2]; 5 μM, 2 mM [KCl]0): 319 ± 4.58
- TDR ([2]; 5 μM, 2 mM [KCl]0): 15 ± 7
- Tpeak-Tend ([2]; 5 μM, 2 mM [KCl]0): 33 ± 1.33
- APD50 ± SE, Epicardium ([2]; 5 μM, 4 mM [KCl]0): 176.5 ± 11.85
- APD50 ± SE, M region ([2]; 5 μM, 4 mM [KCl]0): 207.5 ± 8.627
- APD90 ± SE, Epicardium ([2]; 5 μM, 4 mM [KCl]0): 219 ± 12.12
- APD90 ± SE, M region ([2]; 5 μM, 4 mM [KCl]0): 258.3 ± 11.08
- QTend ([2]; 5 μM, 4 mM [KCl]0): 274.5 ± 13.73
- TDR ([2]; 5 μM, 4 mM [KCl]0): 36 ± 2.449
- Tpeak-Tend ([2]; 5 μM, 4 mM [KCl]0): 37.75 ± 4.09
- APD50 ± SE, Epicardium ([2]; 10 μM, 2 mM [KCl]0): 190 ± 2
- APD50 ± SE, M region ([2]; 10 μM, 2 mM [KCl]0): 208.3 ± 3.48
- APD90 ± SE, Epicardium ([2]; 10 μM, 2 mM [KCl]0): 265.5 ± 16.5
- APD90 ± SE, M region ([2]; 10 μM, 2 mM [KCl]0): 305.3 ± 4.978
- QTend ([2]; 10 μM, 2 mM [KCl]0): 329 ± 2.33
- TDR ([2]; 10 μM, 2 mM [KCl]0): 23.5 ± 1.5
- Tpeak-Tend ([2]; 10 μM, 2 mM [KCl]0): 36 ± 4.09
- APD50 ± SE, Epicardium ([2]; 10 μM, 4 mM [KCl]0): 170.5 ± 12.03
- APD50 ± SE, M region ([2]; 10 μM, 4 mM [KCl]0): 199 ± 9.083
- APD90 ± SE, Epicardium ([2]; 10 μM, 4 mM [KCl]0): 216.5 ± 13.41
- APD90 ± SE, M region ([2]; 10 μM, 4 mM [KCl]0): 260.3 ± 12.66
- QTend ([2]; 10 μM, 4 mM [KCl]0): 277.8 ± 14.99
- TDR ([2]; 10 μM, 4 mM [KCl]0): 30.75 ± 10.46
- Tpeak-Tend ([2]; 10 μM, 4 mM [KCl]0): 39.25 ± 5.54
- APD50 ± SE, Epicardium ([2]; 50 μM, 2 mM [KCl]0): 179 ± 1
- APD50 ± SE, M region ([2]; 50 μM, 2 mM [KCl]0): 214.3 ± 6.333
- APD90 ± SE, Epicardium ([2]; 50 μM, 2 mM [KCl]0): 276.5 ± 18.5
- APD90 ± SE, M region ([2]; 50 μM, 2 mM [KCl]0): 325.5 ± 5.5
- QTend ([2]; 50 μM, 2 mM [KCl]0): 343 ± 2.84
- TDR ([2]; 50 μM, 2 mM [KCl]0): 35.5 ± 3.5
- Tpeak-Tend ([2]; 50 μM, 2 mM [KCl]0): 41 ± 6.35
- APD50 ± SE, Epicardium ([2]; 50 μM, 4 mM [KCl]0): 159.5 ± 12.82
- APD50 ± SE, M region ([2]; 50 μM, 4 mM [KCl]0): 187.8 ± 11.21
- APD90 ± SE, Epicardium ([2]; 50 μM, 4 mM [KCl]0): 218 ± 15.91
- APD90 ± SE, M region ([2]; 50 μM, 4 mM [KCl]0): 257.5 ± 15.47
- QTend ([2]; 50 μM, 4 mM [KCl]0): 279.3 ± 17.21
- TDR ([2]; 50 μM, 4 mM [KCl]0): 32.5 ± 6.278
- Tpeak-Tend ([2]; 50 μM, 4 mM [KCl]0): 41.25 ± 8.37
- APD50 ± SE, Epicardium ([2]; 100 μM, 2 mM [KCl]0): 167.5 ± 0.5
- APD50 ± SE, M region ([2]; 100 μM, 2 mM [KCl]0): 187.7 ± 4.978
- APD90 ± SE, Epicardium ([2]; 100 μM, 2 mM [KCl]0): 293.5 ± 21.5
- APD90 ± SE, M region ([2]; 100 μM, 2 mM [KCl]0): 345 ± 14.36
- QTend ([2]; 100 μM, 2 mM [KCl]0): 376 ± 4.48
- TDR ([2]; 100 μM, 2 mM [KCl]0): 35 ± 11
- Tpeak-Tend ([2]; 100 μM, 2 mM [KCl]0): 55 ± 1.00
- APD50 ± SE, Epicardium ([2]; 100 μM, 4 mM [KCl]0): 152.5 ± 14.44
- APD50 ± SE, M region ([2]; 100 μM, 4 mM [KCl]0): 169 ± 10.5
- APD90 ± SE, Epicardium ([2]; 100 μM, 4 mM [KCl]0): 220.5 ± 18.26
- APD90 ± SE, M region ([2]; 100 μM, 4 mM [KCl]0): 247.8 ± 15.32
- QTend ([2]; 100 μM, 4 mM [KCl]0): 284.5 ± 14.39
- TDR ([2]; 100 μM, 4 mM [KCl]0): 23.75 ± 2.689
- Tpeak-Tend ([2]; 100 μM, 4 mM [KCl]0): 40.5 ± 4.94
- Arrhythmias in the wedge preparation ([2]; any concentration of ranolazine): No arrhythmias were observed
- Ranolazine-induced Torsade de Pointes, Spontaneous ([2]; 2 mM [K+]0): 0/3
- Ranolazine-induced Torsade de Pointes, Stimulation-induced ([2]; 2 mM [K+]0): 0/3
- Ranolazine-induced Torsade de Pointes, Spontaneous ([2]; 4 mM [K+]0): 0/4
- Ranolazine-induced Torsade de Pointes, Stimulation-induced ([2]; 4 mM [K+]0): 0/4
- Early or delayed afterdepolarizations ([2]; tissue or wedge preparations, any concentration of ranolazine): Neither early nor delayed afterdepolarizations were observed
